# Key:
# Test in all cases: ProQinase radiometric kinase panel
# Settings in all cases: mean of 2 exp.
# YES = YES (Homo sapiens, UniProt P07947)
# CDK2/CycA2 = CDK2/CycA2 (Homo sapiens, UniProt P24941)
# TYRO3 = TYRO3 (Homo sapiens, UniProt Q06418)
# PHKG1 = PHKG1 (Homo sapiens, UniProt Q16816)
# PKC-zeta = PKC-zeta (Homo sapiens, UniProt Q05513)
# PRKG1 = PRKG1 (Homo sapiens, UniProt Q13976)
# WNK3 = WNK3 (Homo sapiens, UniProt Q9BYP7)
# JAK2 = JAK2 (Homo sapiens, UniProt O60674)
# Sequence of JAK2 (O60674 whole entry): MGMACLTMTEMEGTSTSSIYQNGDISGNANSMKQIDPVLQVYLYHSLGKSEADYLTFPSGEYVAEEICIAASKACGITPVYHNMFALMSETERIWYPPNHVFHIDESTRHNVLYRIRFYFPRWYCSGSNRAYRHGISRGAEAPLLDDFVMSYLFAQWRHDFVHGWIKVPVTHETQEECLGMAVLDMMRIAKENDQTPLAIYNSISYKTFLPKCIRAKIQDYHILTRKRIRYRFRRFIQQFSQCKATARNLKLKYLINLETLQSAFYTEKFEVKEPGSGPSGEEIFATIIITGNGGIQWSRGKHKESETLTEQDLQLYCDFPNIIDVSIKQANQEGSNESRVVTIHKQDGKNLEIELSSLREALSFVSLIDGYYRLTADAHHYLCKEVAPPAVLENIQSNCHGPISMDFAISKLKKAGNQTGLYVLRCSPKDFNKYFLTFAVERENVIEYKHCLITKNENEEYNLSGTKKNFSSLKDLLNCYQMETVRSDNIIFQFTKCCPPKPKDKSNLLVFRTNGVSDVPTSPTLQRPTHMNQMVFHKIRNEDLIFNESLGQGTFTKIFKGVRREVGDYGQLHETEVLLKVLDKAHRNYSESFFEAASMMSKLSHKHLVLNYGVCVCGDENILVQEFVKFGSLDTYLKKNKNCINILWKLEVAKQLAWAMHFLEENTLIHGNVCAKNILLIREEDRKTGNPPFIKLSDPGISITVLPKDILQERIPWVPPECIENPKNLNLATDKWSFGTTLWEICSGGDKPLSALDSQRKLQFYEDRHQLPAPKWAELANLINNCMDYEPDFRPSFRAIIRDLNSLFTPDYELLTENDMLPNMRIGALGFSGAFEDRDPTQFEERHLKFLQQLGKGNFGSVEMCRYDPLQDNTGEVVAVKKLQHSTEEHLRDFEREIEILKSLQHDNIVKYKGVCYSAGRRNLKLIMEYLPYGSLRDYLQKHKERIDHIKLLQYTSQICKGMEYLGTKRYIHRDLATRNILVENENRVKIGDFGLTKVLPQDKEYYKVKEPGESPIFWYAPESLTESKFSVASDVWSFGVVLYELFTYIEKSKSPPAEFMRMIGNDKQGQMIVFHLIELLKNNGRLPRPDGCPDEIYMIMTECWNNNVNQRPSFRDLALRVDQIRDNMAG
# Sequence of PKC-zeta (Q05513 whole entry): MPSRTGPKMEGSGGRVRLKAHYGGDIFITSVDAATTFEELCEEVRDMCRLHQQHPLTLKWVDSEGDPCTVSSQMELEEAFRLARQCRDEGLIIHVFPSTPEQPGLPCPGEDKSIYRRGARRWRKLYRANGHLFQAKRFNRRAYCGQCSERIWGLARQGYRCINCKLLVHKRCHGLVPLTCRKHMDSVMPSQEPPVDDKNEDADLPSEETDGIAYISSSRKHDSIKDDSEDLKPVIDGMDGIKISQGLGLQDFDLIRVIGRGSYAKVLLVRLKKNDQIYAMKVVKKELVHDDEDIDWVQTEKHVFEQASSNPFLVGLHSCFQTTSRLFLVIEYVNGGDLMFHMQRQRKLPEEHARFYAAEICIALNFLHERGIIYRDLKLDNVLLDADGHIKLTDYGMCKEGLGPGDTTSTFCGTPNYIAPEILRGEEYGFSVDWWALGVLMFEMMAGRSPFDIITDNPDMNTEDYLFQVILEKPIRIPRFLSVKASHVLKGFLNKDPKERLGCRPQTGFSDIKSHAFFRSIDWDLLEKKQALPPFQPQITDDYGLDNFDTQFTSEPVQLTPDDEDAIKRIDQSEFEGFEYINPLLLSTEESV
# Sequence of PHKG1 (Q16816 whole entry): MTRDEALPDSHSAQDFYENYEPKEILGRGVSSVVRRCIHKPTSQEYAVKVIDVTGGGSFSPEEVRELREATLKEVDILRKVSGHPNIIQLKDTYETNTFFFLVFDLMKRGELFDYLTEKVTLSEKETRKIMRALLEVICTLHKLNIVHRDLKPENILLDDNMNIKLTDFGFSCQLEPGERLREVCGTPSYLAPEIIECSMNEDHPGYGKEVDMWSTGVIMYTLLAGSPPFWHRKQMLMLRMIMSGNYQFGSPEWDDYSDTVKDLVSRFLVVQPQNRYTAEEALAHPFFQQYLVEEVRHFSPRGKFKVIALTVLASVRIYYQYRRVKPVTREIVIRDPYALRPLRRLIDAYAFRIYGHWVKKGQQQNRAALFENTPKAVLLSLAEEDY
# Sequence of YES (P07947 whole entry): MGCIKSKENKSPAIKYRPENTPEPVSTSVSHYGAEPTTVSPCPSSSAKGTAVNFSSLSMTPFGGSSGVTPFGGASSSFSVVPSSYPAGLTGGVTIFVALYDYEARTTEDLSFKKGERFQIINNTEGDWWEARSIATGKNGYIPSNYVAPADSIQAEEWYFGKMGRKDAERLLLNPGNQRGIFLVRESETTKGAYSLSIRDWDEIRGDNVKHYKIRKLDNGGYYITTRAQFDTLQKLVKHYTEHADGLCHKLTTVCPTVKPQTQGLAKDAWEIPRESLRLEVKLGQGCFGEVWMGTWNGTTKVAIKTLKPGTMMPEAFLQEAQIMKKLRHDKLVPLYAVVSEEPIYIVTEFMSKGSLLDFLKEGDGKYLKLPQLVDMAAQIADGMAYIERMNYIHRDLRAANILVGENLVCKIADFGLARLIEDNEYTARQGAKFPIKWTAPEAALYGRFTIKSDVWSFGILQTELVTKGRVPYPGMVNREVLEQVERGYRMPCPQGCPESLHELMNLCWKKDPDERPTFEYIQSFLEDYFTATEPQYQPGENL
# Sequence of TYRO3 (Q06418 41-890): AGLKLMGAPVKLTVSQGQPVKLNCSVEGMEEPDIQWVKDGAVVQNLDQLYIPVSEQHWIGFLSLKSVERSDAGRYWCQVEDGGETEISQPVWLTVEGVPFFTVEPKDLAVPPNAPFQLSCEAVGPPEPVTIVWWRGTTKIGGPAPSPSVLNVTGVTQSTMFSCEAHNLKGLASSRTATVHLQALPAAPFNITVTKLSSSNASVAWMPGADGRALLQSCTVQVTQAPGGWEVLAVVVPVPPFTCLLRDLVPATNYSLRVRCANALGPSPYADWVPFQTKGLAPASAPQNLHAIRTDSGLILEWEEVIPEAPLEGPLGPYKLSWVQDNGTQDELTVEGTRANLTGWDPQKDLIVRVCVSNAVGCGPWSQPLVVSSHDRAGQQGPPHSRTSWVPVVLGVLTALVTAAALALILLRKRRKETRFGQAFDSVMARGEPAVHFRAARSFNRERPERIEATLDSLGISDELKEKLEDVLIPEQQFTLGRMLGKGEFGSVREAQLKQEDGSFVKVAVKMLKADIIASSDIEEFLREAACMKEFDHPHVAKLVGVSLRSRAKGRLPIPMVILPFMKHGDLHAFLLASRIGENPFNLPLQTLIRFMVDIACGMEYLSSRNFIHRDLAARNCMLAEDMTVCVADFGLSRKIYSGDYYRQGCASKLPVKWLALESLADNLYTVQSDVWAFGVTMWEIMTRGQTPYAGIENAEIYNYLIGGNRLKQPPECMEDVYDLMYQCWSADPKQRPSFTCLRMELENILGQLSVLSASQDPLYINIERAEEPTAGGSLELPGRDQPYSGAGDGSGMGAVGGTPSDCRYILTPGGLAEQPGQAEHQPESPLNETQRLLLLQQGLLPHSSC
# Sequence of PRKG1 (Q13976 whole entry): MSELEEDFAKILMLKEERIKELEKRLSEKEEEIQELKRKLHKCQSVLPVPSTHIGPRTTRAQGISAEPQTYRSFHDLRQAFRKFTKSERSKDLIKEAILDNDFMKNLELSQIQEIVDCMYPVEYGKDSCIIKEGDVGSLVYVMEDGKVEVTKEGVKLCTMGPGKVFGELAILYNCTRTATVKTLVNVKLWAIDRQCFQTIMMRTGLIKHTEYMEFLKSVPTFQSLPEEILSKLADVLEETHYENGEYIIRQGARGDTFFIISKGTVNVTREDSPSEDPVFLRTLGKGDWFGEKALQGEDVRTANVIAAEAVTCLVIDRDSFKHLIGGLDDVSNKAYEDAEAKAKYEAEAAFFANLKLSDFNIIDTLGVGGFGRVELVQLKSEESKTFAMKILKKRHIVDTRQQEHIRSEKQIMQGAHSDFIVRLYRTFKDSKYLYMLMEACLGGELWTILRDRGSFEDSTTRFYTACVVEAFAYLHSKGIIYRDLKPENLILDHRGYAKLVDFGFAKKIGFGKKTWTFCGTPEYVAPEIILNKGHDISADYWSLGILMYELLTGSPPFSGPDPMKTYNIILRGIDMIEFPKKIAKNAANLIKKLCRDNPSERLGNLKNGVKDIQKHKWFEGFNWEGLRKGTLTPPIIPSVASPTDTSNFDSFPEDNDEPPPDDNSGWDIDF
smiles,measurement,setting,value
COc1ccc2c3ccnc(Cl)c3n(CC#N)c2c1 [AnnH75],"residual activity at 1 µM, Mean",YES,83 % of control
same,"residual activity at 1 µM, Mean",CDK2/CycA2,88 % of control
same,"residual activity at 1 µM, Mean",TYRO3,93 % of control
same,"residual activity at 1 µM, Mean",PHKG1,91 % of control
same,"residual activity at 1 µM, Mean",PKC-zeta,97 % of control
same,"residual activity at 1 µM, Mean",PRKG1,87 % of control
same,"residual activity at 1 µM, Mean",WNK3,94 % of control
same,"residual activity at 1 µM, Mean",JAK2,99 % of control
